Experimental data taken from ChEMBL document CHEMBL1201862, “PubChem BioAssay data set” (2004).
One block for each compound: values may come before it. Activity calls are given as the source filed them.

How the values were obtained:
[1] = biological target: ATP-dependent molecular chaperone HSP82 (Candida albicans (strain WO-1) (Yeast), UniProt C4YTQ8); test: steroid-induced GRE reporter decrease in yeast – S. cerevisiae, luminescence, Hsp90 inhibitor project, dose response (AID 2400); type: functional, cell-based;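 further: beta-galactosidase luminescence from glucocorticoid response element reporter as proxy for Hsp90 function; inhibitor potency where signal loss means Hsp90 inhibition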
ATP-dependent molecular chaperone HSP82, sequence (C4YTQ8 whole entry): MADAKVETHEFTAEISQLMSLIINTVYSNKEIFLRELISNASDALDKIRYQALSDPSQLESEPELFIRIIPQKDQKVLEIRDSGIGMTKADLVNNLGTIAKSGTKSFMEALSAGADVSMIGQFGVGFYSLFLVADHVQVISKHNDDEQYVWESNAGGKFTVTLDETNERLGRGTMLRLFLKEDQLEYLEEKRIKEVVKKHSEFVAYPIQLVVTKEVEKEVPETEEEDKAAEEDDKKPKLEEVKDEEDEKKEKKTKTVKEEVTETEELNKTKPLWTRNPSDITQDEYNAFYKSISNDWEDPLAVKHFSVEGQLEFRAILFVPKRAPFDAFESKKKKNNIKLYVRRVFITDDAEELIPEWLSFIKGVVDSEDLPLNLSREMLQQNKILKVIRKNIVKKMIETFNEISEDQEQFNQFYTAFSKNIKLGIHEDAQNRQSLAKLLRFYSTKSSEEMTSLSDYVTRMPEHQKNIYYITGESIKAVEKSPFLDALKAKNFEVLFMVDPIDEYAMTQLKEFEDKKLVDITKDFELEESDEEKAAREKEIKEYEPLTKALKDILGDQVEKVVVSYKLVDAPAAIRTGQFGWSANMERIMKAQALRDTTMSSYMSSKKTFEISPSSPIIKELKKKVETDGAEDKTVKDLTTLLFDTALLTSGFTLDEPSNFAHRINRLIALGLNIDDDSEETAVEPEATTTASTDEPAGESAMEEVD

[2] = biological target: T1, Bcl-2-like protein 10 (Homo sapiens, UniProt Q9HD36); test: Bcl-B/TR3 peptide binding disruption – biochemical, fluorescence polarization, FITC-TR3 peptide, selectivity assay for Bfl-1 inhibitor project, primary screen (AID 748);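 further: fluorescence polarization from a fluorescein-labelled TR3 peptide binding purified Bcl-B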
T1 sequence (Q9HD36 whole entry): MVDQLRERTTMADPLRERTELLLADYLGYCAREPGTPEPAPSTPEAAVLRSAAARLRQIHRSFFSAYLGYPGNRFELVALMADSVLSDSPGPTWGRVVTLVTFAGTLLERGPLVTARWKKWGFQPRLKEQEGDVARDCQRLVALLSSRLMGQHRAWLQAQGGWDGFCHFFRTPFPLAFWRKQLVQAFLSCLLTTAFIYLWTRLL

[3] = system: HEK293; test: membrane integrity loss in HEK cells – cell-based, fluorescence, cytotoxicity control for IDE activator project, dose response (AID 588440); type: functional; settings: Homo sapiens;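 further: cytotoxicity by LDH release measuring loss of membrane integrity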
[4] = system: BJ; test: cells; type: functional, cell-based; settings: Homo sapiens
[5] = DRD fibroblast viability loss – cell-based, non-viral oncogenic, luminescence, dose response (AID 1934); type: functional; settings: Homo sapiens
[6] = system: HEK293; test: optical interference in Abeta FP readout, dose response, artefact control for IDE activator project, biochemical, fluorescence polarization (AID 588442); type: functional, cell-based; settings: Homo sapiens
[7] = reduction of Shn3 3'UTR-driven luciferase in osteoblasts – cell-based, Clone20 osteoblasts, firefly luciferase, cherry-picked, dose response (AID 624132); type: functional;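 further: firefly luciferase luminescence from reporter carrying the Shn3 3'UTR in osteoblasts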
[8] = biological target: Ribosomal protein S6 kinase alpha-3 (Homo sapiens, UniProt P51812); type: functional;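 further: measured within a kinome-wide profiling panel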
Ribosomal protein S6 kinase alpha-3, sequence (P51812 whole entry): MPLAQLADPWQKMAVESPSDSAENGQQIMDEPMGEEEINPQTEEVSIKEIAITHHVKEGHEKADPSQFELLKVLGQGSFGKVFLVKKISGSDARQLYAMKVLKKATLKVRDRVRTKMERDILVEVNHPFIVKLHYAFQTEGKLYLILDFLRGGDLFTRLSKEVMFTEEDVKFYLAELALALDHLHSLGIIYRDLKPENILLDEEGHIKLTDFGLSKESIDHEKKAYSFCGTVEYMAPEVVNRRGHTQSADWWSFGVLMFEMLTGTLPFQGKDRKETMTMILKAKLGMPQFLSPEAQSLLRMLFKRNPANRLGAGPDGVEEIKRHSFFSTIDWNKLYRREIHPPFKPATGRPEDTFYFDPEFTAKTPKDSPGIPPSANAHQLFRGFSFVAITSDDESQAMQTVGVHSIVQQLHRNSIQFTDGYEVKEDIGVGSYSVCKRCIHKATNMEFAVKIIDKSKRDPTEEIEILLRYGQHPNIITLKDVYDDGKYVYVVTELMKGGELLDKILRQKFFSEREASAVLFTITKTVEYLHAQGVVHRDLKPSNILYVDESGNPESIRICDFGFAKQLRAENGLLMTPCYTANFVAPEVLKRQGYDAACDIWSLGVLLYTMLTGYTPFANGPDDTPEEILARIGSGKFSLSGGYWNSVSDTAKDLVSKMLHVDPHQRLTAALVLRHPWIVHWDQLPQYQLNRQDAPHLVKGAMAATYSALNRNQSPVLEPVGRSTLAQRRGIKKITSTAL

[9] = biological target: Misshapen-like kinase 1 (Homo sapiens, UniProt Q8N4C8); type: functional;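 further: kinome panel screen with MINK as the panel member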
Misshapen-like kinase 1, sequence (Q8N4C8 whole entry, canonical isoform): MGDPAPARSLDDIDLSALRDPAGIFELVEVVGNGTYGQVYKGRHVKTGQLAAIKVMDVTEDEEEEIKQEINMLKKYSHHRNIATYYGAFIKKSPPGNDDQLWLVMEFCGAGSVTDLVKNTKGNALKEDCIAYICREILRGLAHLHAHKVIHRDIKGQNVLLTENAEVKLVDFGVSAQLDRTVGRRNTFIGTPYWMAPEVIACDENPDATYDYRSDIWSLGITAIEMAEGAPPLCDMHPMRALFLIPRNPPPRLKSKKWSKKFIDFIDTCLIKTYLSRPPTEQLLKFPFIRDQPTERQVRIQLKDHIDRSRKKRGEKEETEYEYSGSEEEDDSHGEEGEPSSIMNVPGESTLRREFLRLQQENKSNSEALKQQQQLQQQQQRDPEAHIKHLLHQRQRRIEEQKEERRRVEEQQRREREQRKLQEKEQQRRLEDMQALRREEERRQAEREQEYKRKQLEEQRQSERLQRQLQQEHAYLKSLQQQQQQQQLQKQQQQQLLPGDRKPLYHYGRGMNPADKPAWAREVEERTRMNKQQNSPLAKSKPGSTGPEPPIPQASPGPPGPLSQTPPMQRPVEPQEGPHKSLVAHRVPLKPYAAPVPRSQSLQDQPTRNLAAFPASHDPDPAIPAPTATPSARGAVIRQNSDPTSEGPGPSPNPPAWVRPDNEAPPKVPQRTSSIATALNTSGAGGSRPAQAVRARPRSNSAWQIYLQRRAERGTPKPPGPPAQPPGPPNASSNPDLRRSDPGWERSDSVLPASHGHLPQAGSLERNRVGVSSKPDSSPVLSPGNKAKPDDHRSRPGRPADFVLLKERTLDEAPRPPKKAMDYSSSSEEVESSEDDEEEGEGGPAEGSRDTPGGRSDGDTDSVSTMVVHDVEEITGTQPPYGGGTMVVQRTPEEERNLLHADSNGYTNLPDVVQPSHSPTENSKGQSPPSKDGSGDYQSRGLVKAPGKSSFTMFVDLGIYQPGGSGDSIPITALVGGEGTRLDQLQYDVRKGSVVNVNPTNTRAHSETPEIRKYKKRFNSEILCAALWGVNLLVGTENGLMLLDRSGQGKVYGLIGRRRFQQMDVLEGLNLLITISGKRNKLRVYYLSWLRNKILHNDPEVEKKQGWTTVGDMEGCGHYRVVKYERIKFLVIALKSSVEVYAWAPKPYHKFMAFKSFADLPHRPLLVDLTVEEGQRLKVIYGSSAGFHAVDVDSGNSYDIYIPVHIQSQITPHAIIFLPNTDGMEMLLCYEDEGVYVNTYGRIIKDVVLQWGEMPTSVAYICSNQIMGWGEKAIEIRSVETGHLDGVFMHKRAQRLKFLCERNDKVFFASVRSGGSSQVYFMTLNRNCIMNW

[10] = biological target: Casein kinase I isoform alpha (Homo sapiens, UniProt P48729); type: functional
Casein kinase I isoform alpha, sequence (P48729 whole entry, canonical isoform): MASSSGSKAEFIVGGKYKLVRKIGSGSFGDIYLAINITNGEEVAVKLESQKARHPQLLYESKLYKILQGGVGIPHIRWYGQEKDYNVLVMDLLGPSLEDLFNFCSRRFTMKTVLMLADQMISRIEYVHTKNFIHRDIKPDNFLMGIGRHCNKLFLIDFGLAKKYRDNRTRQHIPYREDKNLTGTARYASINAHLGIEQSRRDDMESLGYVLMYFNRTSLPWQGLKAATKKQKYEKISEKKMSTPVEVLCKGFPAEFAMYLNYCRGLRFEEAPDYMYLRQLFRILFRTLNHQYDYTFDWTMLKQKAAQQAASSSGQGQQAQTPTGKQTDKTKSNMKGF

[11] = biological target: Cyclin-dependent kinase 5 (Homo sapiens, UniProt Q00535); type: functional;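 further: CDK5 measured as one member of a kinase profiling panel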
Cyclin-dependent kinase 5, sequence (Q00535 whole entry): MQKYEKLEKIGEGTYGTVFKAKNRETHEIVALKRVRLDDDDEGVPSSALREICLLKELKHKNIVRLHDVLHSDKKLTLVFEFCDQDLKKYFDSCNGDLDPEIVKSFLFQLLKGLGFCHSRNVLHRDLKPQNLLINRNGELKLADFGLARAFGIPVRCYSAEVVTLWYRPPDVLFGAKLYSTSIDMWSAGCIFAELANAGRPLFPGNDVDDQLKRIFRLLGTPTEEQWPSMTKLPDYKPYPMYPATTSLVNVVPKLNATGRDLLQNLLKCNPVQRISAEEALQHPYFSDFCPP

[12] = biological target: T2, Sentrin-specific protease 8 (Homo sapiens, UniProt Q96LD8); type: functional;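 further: luminescence read-out of SENP8 inhibition, dose-response confirmation following an ultra-high-throughput screen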
T2 sequence (Q96LD8 whole entry): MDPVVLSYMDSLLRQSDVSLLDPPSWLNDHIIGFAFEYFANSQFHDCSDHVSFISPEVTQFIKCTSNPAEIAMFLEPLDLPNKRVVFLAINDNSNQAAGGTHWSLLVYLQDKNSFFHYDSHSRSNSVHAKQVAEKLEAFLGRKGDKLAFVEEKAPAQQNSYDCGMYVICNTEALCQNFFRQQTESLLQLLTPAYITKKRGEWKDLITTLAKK

[13] = biological target: Serine/threonine-protein phosphatase PP1-alpha catalytic subunit (Homo sapiens, UniProt P62136); test: inhibition of protein phosphatase 1 activity – biochemical, fluorescence, dose response (AID 2394)
Serine/threonine-protein phosphatase PP1-alpha catalytic subunit, sequence (P62136 whole entry): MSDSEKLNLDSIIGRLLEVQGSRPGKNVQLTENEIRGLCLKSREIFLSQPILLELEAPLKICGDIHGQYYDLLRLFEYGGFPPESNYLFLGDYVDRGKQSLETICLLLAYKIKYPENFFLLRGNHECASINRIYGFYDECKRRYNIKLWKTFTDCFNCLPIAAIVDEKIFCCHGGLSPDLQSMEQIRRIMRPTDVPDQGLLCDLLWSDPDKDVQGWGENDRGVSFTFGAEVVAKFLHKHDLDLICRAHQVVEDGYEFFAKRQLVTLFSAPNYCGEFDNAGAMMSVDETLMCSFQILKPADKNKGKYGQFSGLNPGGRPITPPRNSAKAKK

[14] = biological target: T3, Caspase-3 (Homo sapiens, UniProt P42574); type: functional;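 further: Dose-response selectivity test against caspase-3 for candidate inhibitors of sentrin-specific proteases (SENPs)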
T3 sequence (P42574 whole entry): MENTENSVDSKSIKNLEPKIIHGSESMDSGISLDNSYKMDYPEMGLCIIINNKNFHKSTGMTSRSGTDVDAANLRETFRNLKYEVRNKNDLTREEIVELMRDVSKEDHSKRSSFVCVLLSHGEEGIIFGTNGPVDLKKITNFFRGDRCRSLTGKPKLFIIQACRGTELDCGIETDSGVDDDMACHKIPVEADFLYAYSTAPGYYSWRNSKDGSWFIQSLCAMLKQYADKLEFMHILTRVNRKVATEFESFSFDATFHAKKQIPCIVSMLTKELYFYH

[15] = biological target: T4, Sentrin-specific protease 6 (Homo sapiens, UniProt Q9GZR1); type: functional;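 further: Luminescence-based dose-response confirmatory assay of SENP6 inhibition, following up an ultra-high-throughput screen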
T4 sequence (Q9GZR1 whole entry): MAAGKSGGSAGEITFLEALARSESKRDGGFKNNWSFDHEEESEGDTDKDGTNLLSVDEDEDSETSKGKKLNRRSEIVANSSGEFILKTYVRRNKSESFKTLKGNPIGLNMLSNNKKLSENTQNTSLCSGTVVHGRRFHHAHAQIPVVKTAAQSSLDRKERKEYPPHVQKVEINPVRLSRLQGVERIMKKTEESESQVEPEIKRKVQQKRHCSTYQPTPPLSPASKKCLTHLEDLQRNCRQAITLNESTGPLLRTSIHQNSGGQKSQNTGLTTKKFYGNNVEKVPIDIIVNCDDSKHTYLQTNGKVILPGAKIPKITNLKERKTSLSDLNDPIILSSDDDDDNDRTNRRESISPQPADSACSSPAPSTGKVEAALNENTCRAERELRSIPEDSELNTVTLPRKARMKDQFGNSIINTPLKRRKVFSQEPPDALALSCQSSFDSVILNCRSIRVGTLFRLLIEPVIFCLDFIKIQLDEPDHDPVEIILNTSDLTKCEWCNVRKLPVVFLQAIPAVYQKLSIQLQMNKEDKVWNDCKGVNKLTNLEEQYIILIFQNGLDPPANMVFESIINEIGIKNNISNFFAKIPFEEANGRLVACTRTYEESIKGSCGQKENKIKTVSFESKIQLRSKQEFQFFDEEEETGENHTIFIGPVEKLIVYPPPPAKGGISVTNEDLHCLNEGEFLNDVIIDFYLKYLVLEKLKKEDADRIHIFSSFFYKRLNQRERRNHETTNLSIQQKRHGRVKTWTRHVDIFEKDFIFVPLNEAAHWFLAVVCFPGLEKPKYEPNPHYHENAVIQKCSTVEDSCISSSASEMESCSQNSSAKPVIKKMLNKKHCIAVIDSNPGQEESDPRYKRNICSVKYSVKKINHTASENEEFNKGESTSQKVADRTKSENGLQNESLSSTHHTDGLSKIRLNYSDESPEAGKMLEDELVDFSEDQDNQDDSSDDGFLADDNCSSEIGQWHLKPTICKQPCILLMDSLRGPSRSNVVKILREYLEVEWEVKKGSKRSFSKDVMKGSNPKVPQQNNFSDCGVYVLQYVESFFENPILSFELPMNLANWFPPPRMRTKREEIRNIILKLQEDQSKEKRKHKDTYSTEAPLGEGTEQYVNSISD

Compound: CC(C)CC(=O)NC(c1cccs1)c1ccc2cccnc2c1O (configuration not stated)
- EC50 [1]: > 150 µM (inactive)

Compound: CCOC(=O)c1ccc(NC2=CC(=O)C(=O)c3ccccc32)cc1
- IC50 [2]: 60.7 µM (inactive)

Compound: OC(CNCCC1C=Nc2ccccc21)Cn1c2ccc(Cl)cc2c2cc(Cl)ccc21 (configuration not stated)
- IC50 [3]: 10.2 µM (inactive)
- EC50 [4]: > 75 µM (not active)
- EC50 [5]: 9.1 µM (active)
- EC50 [6]: > 56 µM (inactive)
- AC50 [7]: 5.11 µM (active)

Second part, led by results:

- Ki [8]: 0.0126 µM (active)
- pKi [8]: 7.9
- Ki [9]: 0.02 µM (active)
- pKi [9]: 7.7
Compound: NC1CCC(Nc2nc(Cl)cc(-c3c[nH]c4ncccc34)n2)CC1 (configuration not stated)

- Ki [10]: > 3.98 µM (inactive)
- Ki [11]: > 3.16 µM (inactive)
Compound: O=C(O)C1CN(Cc2ccc(OCc3ccccc3)cc2Cl)C1

- IC50 [13]: > 67 µM (not active)
- IC50 [14]: 8.21 µM (active)
- IC50 [15]: 0.805 µM (active)
Compound: COc1ccc(C(=O)c2nccc3cc(OC)c(OC)cc23)cc1OC
- IC50 [12]: 2.47 µM (active)
